For experiment [1], the system named is U-2 OS H3-Dendra2 cells. Put plainly: Nucleus-to-cytoplasm (N:C) miRFP ratio of individually expressed NLS variants fused to CMPK-miRFP reporter. It is filed as cell-based, human. How it is done:
FIGS. 3A-3D. Visual Cell Sorting-derived variant scores accurately predict NLS function. (3A) Nine NLS variants were individually expressed in the CMPK-miRFP reporter in U-2 OS H3-Dendra2 cells. The median nucleus to cytoplasm (N:C) ratio of cells expressing each variant was measured by microscope and compared to its localization score derived by Visual Cell Sorting. n≥141 cells per variant per replicate. Bars, mean across at least three separate replicates. (3B) SV40 NLS variants that appeared to enhance nuclear localization were individually tested both alone and in combination. NLS variants with up to three amino acid changes were expressed in U-2 OS H3-Dendra2 cells and imaged; the median N:C ratio was quantified across cells in the same well. n≥527 cells per variant per replicate. […]
A library was based on the SV40 NLS, a 7-residue sequence containing a lysine and arginine-rich region (K/R motif) that was the first NLS to be discovered. […] The degree of nuclear localization was calculated using a nucleus-to-cytoplasm miRFP intensity ratio (N:C ratio; FIG. 9A). […]
Analysis of Metamorph-calculated nucleus and cytoplasm mean intensity values was done using Python (v3.6.5). […] Cells with no miRFP expression were removed with a gate that was determined by examination of the histogram of the mean miRFP intensity values for cells in each well. […]

The subject of experiment [2] is hTERT RPE-1. Briefly: Nuclear shape factor imaging of paclitaxel-treated cells (nuclear lobulation). It is filed as cell-based, human. To be noted: 0.25 nM paclitaxel, 24 hours, RPE-1 NLS-Dendra2×3 cells. The protocol: FIGS. 4A-4F. Visual Cell Sorting to dissect heterogeneous nuclear morphology following paclitaxel treatment. (4A) RPE-1 NLS-Dendra2×3 cells were treated for 24 hours with 0.25 nM paclitaxel or DMSO and imaged. The shape factor, which measures the degree of an object's circularity, was computed for each nucleus. One normal nucleus with a shape factor near one and one lobulated nucleus with a low shape factor are shown. The computationally determined boundaries of each nucleus are shown in blue; scale bar=10 (4B) Shape factor density plots for vehicle (DMSO) and 0.25 nM paclitaxel-treated RPE-1 cells (n≥3,914 cells per treatment). Dashed line, cutoff for lobulated nuclei (shape factor <0.65). […]
To test whether Visual Cell Sorting enables transcriptomics on cells with distinct image-based phenotypes, single cell RNA sequencing was performed on cells undergoing divergent morphologic responses to paclitaxel. […] Paclitaxel treated cells were then analyzed it was observed that 30% of paclitaxel treated cells had lobulated nuclei, defined by shape factor of less than 0.65 (FIG. 4B).
RPE-1 NLS-Dendra2×3/H2B-miRFP/NES-mBeRFP Clone 3 cells were plated at 50,000 cells per well in a 6-well plate. […] After 30 hours of treatment, cells were placed on the microscope and imaged, analyzed, and activated across 2,204 sites (˜75% coverage, avoided well edges) in 2 wells. […]

Regarding “EPPRKKRKIGI [superNLS, optimized SV40 NLS with three missense variants, fused to the CMPK-miRFP reporter]”, the “increase in nuclear localization compared to the wild-type SV40 NLS (median N:C ratio)” value in experiment [1] is on record as 2.3 fold.
In the case of `CC(=O)O[C@H]1C(=O)[C@@]2(C)[C@H]([C@H](OC(=O)c3ccccc3)[C@]3(O)C[C@H](OC(=O)[C@H](O)[C@@H](NC(=O)c4ccccc4)c4ccccc4)C(C)=C1C3(C)C)[C@]1(OC(C)=O)CO[C@@H]1C[C@@H]2O` [paclitaxel], the “cells with lobulated nuclei, defined by shape factor of less than 0.65” value in experiment [2] is 30%.

The values above are taken from patent publication US12298297B2, “Visual cell sorting” (University of Washington, priority 2020, dated 2025).
